pIC50, pKd: −log10 of the molar value. Activity calls are given as the source filed them. The rule behind the calls is not given here.
Assays:
[1] = Clearance in iv dosed mouse; assay type: ADME, organism-based; details: in vivo
[2] = Oral bioavailability in mouse; assay type: ADME, organism-based; details: in vivo
[3] = target: T1, hERG (KCNH2) (Homo sapiens, UniProt Q12809); test: in vitro
Description: Inhibition of human ERG at 10 uM by manual patch-clamp assay relative to control

[4] = target: C-C chemokine receptor type 2 (Homo sapiens, UniProt P41597)
Description: Displacement of [125I]MCP1 from CCR2 in human PBMC measured after 30 mins

[5] = Stability in human liver microsomes assessed as parent compound remaining at 3 uM measured after 10 mins; assay type: ADME, Microsome; details: read-out: Stability
[6] = target: T2, C-C chemokine receptor type 5 (Homo sapiens, UniProt P51681)
T2 sequence (P51681 whole entry): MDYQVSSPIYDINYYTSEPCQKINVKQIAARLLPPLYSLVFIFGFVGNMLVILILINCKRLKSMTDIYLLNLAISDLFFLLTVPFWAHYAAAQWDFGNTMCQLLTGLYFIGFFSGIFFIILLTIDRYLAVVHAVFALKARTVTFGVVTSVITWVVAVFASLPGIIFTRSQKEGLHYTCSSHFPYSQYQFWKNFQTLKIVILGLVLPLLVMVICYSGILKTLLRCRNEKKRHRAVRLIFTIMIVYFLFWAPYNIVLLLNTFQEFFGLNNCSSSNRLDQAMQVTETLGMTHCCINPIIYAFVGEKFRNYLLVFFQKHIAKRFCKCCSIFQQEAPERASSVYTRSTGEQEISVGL
Description: Antagonist activity at CCR5 (unknown origin) expressed in human HT1080 cells assessed as blockade of MIP1beta-binding to receptor

[7] = Permeability of the compound at pH 7.4 by PAMPA; assay type: ADME; details: read-out: permeability
[8] = Drug metabolism in human liver microsomes assessed as rate of disappearance at 3 uM; assay type: ADME, Microsome
[9] = target: T1, hERG (KCNH2); test: Inhibition of human ERG at 30 uM by manual patch-clamp assay relative to control
[10] = target: T2, C-C chemokine receptor type 5; test: Binding affinity to CCR5 in T-cell (unknown origin)
[11] = Toxicity in rat measured after 14 days; details: in vivo, 336 h
[12] = system: Cynomolgus monkey; test: In vivo antagonist activity at CCR2 in po dosed cynomolgus monkey assessed as inhibition of MCP1-induced chemotaxis administered once daily for three days followed by MCP1 stimulation and measured after 18 hrs; assay type: functional, organism-based; details: Macaca fascicularis
[13] = Half life in iv dosed rat; details: in vivo
[14] = system: Mus musculus; test: Protection against C57BL/6-SVJ12 mouse model of thioglycollate-induced peritonitis administered orally 1 hr prior to thioglycollate-stimulation for 48 hrs and subsequent bid dosing for 3 days following 1 hr thioglycollate-stimulation measured by Wright-Giemsa Staining based flow cytometry; assay type: functional, organism-based
[15] = Toxicity in monkey administered as single dose; parameters: species or system Macaca mulatta; details: rhesus monkey, in vivo
[16] = Cardiotoxicity in telemetered monkey assessed as changes in QTc interval at 30 mg/kg; assay type: toxicity, organism-based, Macaca mulatta; details: rhesus monkey, in vivo
[17] = Oral bioavailability in cynomolgus monkey; details: in vivo
[18] = Half life in iv dosed cynomolgus monkey; details: in vivo
[19] = Toxicity in rat administered as single dose; details: in vivo

T1 sequence (Q12809 whole entry): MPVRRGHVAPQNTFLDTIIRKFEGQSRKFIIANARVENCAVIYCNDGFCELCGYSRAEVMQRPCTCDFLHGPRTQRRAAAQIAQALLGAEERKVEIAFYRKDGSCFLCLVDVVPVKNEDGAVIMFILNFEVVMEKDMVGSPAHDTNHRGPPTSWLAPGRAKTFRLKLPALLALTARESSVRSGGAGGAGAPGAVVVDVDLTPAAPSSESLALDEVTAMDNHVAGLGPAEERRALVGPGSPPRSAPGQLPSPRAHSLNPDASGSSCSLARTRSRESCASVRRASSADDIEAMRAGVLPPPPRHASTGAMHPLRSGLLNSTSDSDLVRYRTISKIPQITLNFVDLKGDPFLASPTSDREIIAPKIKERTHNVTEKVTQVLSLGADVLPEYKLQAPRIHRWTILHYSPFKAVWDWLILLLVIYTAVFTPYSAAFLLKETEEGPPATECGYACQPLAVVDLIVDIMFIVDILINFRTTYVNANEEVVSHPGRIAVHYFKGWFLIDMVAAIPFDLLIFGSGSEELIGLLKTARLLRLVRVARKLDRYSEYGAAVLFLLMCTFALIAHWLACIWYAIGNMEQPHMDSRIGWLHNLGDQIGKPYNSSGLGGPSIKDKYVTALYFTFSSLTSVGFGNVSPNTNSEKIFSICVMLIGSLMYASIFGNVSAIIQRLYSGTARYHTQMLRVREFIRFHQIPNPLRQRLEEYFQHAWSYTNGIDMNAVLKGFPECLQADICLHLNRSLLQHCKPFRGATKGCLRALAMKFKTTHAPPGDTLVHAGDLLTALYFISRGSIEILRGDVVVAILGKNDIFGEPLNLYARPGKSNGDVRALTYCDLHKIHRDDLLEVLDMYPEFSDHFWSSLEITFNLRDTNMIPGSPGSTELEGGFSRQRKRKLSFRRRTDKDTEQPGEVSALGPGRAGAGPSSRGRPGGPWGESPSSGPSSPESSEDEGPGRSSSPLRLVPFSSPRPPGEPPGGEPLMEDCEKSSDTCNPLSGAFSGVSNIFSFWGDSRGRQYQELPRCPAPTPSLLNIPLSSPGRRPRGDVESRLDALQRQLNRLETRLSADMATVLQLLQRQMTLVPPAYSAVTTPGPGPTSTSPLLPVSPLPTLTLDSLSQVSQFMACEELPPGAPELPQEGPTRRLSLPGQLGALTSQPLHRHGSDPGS
C-C chemokine receptor type 2, sequence (P41597 whole entry): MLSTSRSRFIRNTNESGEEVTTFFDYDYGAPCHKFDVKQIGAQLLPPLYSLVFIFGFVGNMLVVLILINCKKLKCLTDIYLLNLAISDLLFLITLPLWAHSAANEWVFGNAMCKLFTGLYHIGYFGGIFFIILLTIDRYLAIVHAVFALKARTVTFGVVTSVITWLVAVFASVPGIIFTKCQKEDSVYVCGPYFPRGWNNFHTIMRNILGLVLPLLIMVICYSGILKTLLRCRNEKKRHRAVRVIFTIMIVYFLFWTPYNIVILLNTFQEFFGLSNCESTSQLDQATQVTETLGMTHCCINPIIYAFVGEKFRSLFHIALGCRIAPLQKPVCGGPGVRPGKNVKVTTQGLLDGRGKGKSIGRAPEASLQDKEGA

| clearance [1] | bioavailability [2] | pIC50 [4] | remaining at 10 min, 3 µM [5] | pIC50 [6] | Papp [7] | Drug metabolism [8] | pKd [10] | half-life [13] | bioavailability [17] | half-life [18] | Structure (SMILES) | inhibition at 10 µM [3] | inhibition at 30 µM [9] | Activity [11] | inhibition [12] | Activity [14] | Activity [15] | Activity [16] | Activity [19] |
| --- | --- | --- | --- | --- | --- | --- | --- | --- | --- | --- | --- | --- | --- | --- | --- | --- | --- | --- | --- |
| 67 mL/min/kg | 11% | 8.85 | 100% | 5.80 | 6.5 ×10⁻⁶ cm/s | 0 nmol/min |  |  |  |  | CC(C)N(C)[C@@H]1CC[C@H](N2CC[C@H](NC(=O)c3cccc(C(F)(F)F)c3)C2=O)[C@H](N(C)S(C)(=O)=O)C1 | 7% |  |  |  |  |  |  |  |
| 70 mL/min/kg |  |  | 100% | 5.79 | 9.4 ×10⁻⁶ cm/s | 0 nmol/min |  |  |  |  | CC(C)N(C)[C@@H]1CC[C@H](N2CC[C@H](NC(=O)c3cccc(C(F)(F)F)c3)C2=O)[C@H](CS(C)(=O)=O)C1 |  |  |  |  |  |  |  |  |
|  |  | 9.40 | 58% | 6.54 | 39.4 ×10⁻⁶ cm/s | 0.13 nmol/min |  |  |  |  | CC(C)N(C)[C@@H]1CC[C@H](N2CC[C@H](Nc3ncnc4ccc(C(F)(F)F)cc34)C2=O)[C@H](NS(C)(=O)=O)C1 [BMS-741672] | 74% |  |  |  |  |  |  |  |
| 258 mL/min/kg | 35% | 8.72 | 85% | 5.46 | 59.3 ×10⁻⁶ cm/s | 0.05 nmol/min |  |  |  |  | CC(C)N(C)[C@@H]1CC[C@H](N2CC[C@H](NC(=O)c3cccc(C(F)(F)F)c3)C2=O)[C@H](NS(C)(=O)=O)C1 |  |  |  |  |  |  |  |  |
|  |  |  | 100% |  | 52.9 ×10⁻⁶ cm/s | 0 nmol/min |  |  |  |  | CCC[C@@H]1C[C@H](N(C)C(C)C)CC[C@@H]1N1CC[C@H](Nc2ncnc3ccc(C(F)(F)F)cc23)C1=O |  |  |  |  |  |  |  |  |
|  |  | 9.05 | 99% | 6.72 | 1.4 ×10⁻⁶ cm/s | 0 nmol/min |  |  |  |  | CC(C)N(C)[C@@H]1CC[C@H](N2CC[C@H](Nc3ncnc4ccc(C(F)(F)F)cc34)C2=O)[C@H](CS(C)(=O)=O)C1 |  | 16% |  |  |  |  |  |  |
| 38 mL/min/kg | 28% |  | 95% | 6.11 |  | 0.01 nmol/min | 7.63 | 5.1 h | 46% | 3.2 h | CC(=O)N[C@@H]1C[C@H](N(C)C(C)C)CC[C@@H]1N1CC[C@H](Nc2ncnc3ccc(C(F)(F)F)cc23)C1=O | 33% |  | Non-Toxic | Active | Active | Non-Toxic | Non-Toxic | Non-Toxic |

From ChEMBL document CHEMBL4339198, “Use of a Conformational-Switching Mechanism to Modulate Exposed Polarity: Discovery of CCR2 Antagonist BMS-741672” (ACS Med Chem Lett, 2019)
